Assay results from patent US10138251B2, “Spiro[3H-indole-3,2′-pyrrolidin]-2(1H)-one compounds and derivatives as MDM2-P53 inhibitors” (Boehringer Ingelheim International GmbH, priority 2014, dated 2018).

These compounds were tested against T1, MDM2 (Homo sapiens, UniProt Q00987) (assay: Mdm2-p53 Inhibition AlphaScreen). Conditions: 20 nM GST-MDM2 protein (aa 23-117), 20 nM biotinylated p53 wt peptide.
T1 construct: 20 nM GST-MDM2 protein (aa 23-117)
Assay type: binding
Description: Mdm2-p53 Inhibition AlphaScreen
15 μL of compound in 20% DMSO (serial pre-dilutions of compound are done in 100% DMSO) is pipetted to the wells of a white OptiPlate-96 (PerkinElmer). A mix consisting of 20 nM GST-MDM2 protein (aa 23-117) and 20 nM biotinylated p53 wt peptide (encompassing aa 16-27 of wt human p53, amino acid sequence QETFSDLWKLLP-Ttds-Lys-Biotin, molecular weight 2132.56 g/mol) is prepared in assay buffer (50 mM Tris/HCl pH 7.2; 120 mM NaCl; 0.1% bovine serum albumin (BSA); 5 mM dithiothreitol (DTT); 1 mM ethylenediaminetetraacetic acid (EDTA); 0.01% Tween 20). 30 μL of the mix is added to the compound dilutions and incubated for 15 min at rt while gently shaking the plate at 300 rounds per minute (rpm). Subsequently, 15 μL of premixed AlphaLISA Glutathione Acceptor Beads and AlphaScreen Streptavidin Donor Beads from PerkinElmer (in assay buffer at a concentration of 10 μg/mL each) are added and the samples are incubated for 30 min at rt in the dark (shaking 300 rpm). Afterwards, the signal is measured in a PerkinElmer Envision HTS Multilabel Reader using the AlphaScreen protocol from PerkinElmer.
Each plate contains negative controls where biotinylated p53-peptide and GST-MDM2 are left out and replaced by assay buffer. Negative control values are entered as low basis value when using the software GraphPad Prism for calculations. Furthermore, a positive control (5% DMSO instead of test compound; with protein/peptide mix) is pipetted. Determination of IC50 values are carried out using GraphPad Prism 3.03 software (or updates thereof).

T1 sequence (Q00987 23-117): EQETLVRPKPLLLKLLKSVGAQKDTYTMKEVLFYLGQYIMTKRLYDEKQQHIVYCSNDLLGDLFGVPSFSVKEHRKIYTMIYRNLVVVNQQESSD

| Compound | IC50 [nM] |
| --- | --- |
| O=C(O)c1ccc([C@@H]2CC[C@H]3[C@@H](N2)[C@H](c2cccc(Cl)c2F)[C@]2(C(=O)Nc4cc(Cl)ccc42)N3CC2CC2)cc1 [Compound I-40] | 133 |
| O=C(O)c1ccc([C@H]2C[C@H]3[C@@H](N2)[C@H](c2cccc(Cl)c2F)[C@]2(C(=O)Nc4cc(Cl)ccc42)N3CC2CC2)cc1 [Compound I-29] | 5 |
| O=C(O)c1cccc([C@@H]2C[C@H]3[C@@H](N2)[C@H](c2cccc(Cl)c2)[C@]2(C(=O)Nc4cc(Cl)ccc42)N3CC2CC2)c1 [Compound I-28] | 249 |
| O=C(O)c1ccc([C@H]2CC[C@H]3[C@@H](N2)[C@H](c2cccc(Cl)c2F)[C@]2(C(=O)Nc4cc(Cl)ccc42)N3CC2CC2)cc1 [Compound I-39] | 124 |
| CCOc1cccc(CN2[C@H]3C[C@H](c4ccc(C(=O)O)cc4)N[C@H]3[C@H](c3cccc(Cl)c3F)[C@]23C(=O)Nc2cc(Cl)ccc23)c1 [Compound I-36] | 4 |
| O=C(O)C1CCC(CN2CC[C@H]3[C@@H]2[C@H](c2cccc(Cl)c2F)[C@]2(C(=O)Nc4cc(Cl)ccc42)N3CC2CC2)CC1 (some centres unmarked) [Compound I-61] | 274 |
| O=C(O)CN1CC[C@H]2[C@@H]1[C@H](c1cccc(Cl)c1)[C@]1(C(=O)Nc3cc(Cl)ccc31)N2CC1CC1 [Compound I-60] | 85 |
| O=C(O)C[C@@H]1C[C@H]2[C@@H](N1)[C@H](c1cccc(Cl)c1)[C@]1(C(=O)Nc3cc(Cl)ccc31)N2CC1CC1 [Compound I-47] | 280 |
| O=C(O)C[C@H]1C[C@H]2[C@@H](N1)[C@H](c1cccc(Cl)c1)[C@]1(C(=O)Nc3cc(Cl)ccc31)N2CC1CC1 [Compound I-46] | 280 |
| COc1cc(C(=O)O)ccc1[C@@H]1C[C@H]2[C@@H](N1)[C@H](c1cccc(Cl)c1)[C@]1(C(=O)Nc3cc(Cl)ccc31)N2CC1CC1 [Compound I-26] | 173 |
| O=C(O)c1ccc([C@H]2C[C@H]3[C@@H](N2)[C@H](c2cccc(Cl)c2F)[C@]2(C(=O)Nc4cc(Cl)c(F)cc42)N3CC2CC2)cc1 [Compound I-35] | 9 |
| O=C(O)c1cccc([C@H]2C[C@H]3[C@@H](N2)[C@H](c2cccc(Cl)c2)[C@]2(C(=O)Nc4cc(Cl)ccc42)N3CC2CC2)c1 [Compound I-27] | 32 |
| O=C(O)c1ccc([C@H]2C[C@H]3[C@@H](N2)[C@H](c2cccc(Cl)c2)[C@]2(C(=O)Nc4cc(Cl)ccc42)N3CC2CC2)cc1 [Compound I-24] | 23 |
| O=C(O)c1ccc([C@@H]2C[C@H]3[C@@H](N2)[C@H](c2cccc(Cl)c2F)[C@]2(C(=O)Nc4cc(Cl)ccc42)N3CC2CC2)cc1 [Compound I-30] | 41 |
| COc1cc([C@@H]2C[C@@H]3[C@H](N2)[C@@H](c2cccc(Cl)c2F)[C@@]2(C(=O)Nc4cc(Cl)ccc42)N3CC2CC2)ccc1C(=O)O [Compound I-32] | 373 |
| CCOc1cccc(CN2[C@H]3C[C@@H](c4ccc(C(=O)O)cc4)N[C@H]3[C@H](c3cccc(Cl)c3F)[C@]23C(=O)Nc2cc(Cl)ccc23)c1 [Compound I-37] | 5 |
| CCOc1cccc(CN2[C@H]3C[C@H](c4ccc(C(=O)O)cc4)N[C@H]3[C@H](c3cccc(Cl)c3F)[C@]23C(=O)Nc2cc(Cl)ccc23)c1 [Compound I-38] | 2 |
| CCOC(=O)c1ccc([C@H]2C[C@H]3[C@@H](N2)[C@H](c2cccc(Cl)c2F)[C@]2(C(=O)Nc4cc(Cl)c(F)cc42)N3CC2CC2)cc1 [Compound I-13] | 623 |
| O=C1Nc2nc(Cl)ccc2[C@@]12[C@@H](c1cccc(Cl)c1F)[C@@H]1NCC[C@@H]1N2CC1CC1 [Compound I-23] | 871 |
| O=C(O)c1ccc([C@@H]2C[C@H]3[C@@H](N2)[C@H](c2cccc(Cl)c2)[C@]2(C(=O)Nc4cc(Cl)ccc42)N3CC2CC2)cc1 [Compound I-25] | 49 |

The next lines start with the values.

| IC50 [nM] | Compound |
| --- | --- |
| 106 | O=C(O)c1ccc(C(=O)N2CC[C@H]3C2[C@H](c2cccc(Cl)c2F)[C@]2(C(=O)Nc4cc(Cl)ccc42)N3CC2CC2)cc1 (some centres unmarked) [Compound I-92] |
| 444 | CC(=O)Nc1ccc(C(=O)N2CC[C@H]3C2[C@H](c2cccc(Cl)c2F)[C@]2(C(=O)Nc4cc(Cl)ccc42)N3CC2CC2)c(C)c1 (some centres unmarked) [Compound I-81] |
| 3 | CCOc1cccc(CN2[C@H]3CCN(CC4CC4C(=O)O)[C@H]3[C@H](c3cccc(Cl)c3F)[C@]23C(=O)Nc2cc(Cl)ccc23)c1 (some centres unmarked) [Compound I-65] |
| 381 | CN(C)CC(=O)N1CC[C@H]2C1[C@H](c1cccc(Cl)c1F)[C@]1(C(=O)Nc3cc(Cl)ccc31)N2CC1CC1 (some centres unmarked) [Compound I-78] |
| 1300 | O=C(O)c1[nH]ncc1CN1CC[C@H]2[C@@H]1[C@H](c1cccc(Cl)c1F)[C@]1(C(=O)Nc3cc(Cl)ccc31)N2CC1CC1 [Compound I-72] |
| 21 | CCOc1cccc(CN2[C@H]3CCN(CC4CC4C(N)=O)[C@H]3[C@H](c3cccc(Cl)c3F)[C@]23C(=O)Nc2cc(Cl)ccc23)c1 (some centres unmarked) [Compound I-74] |
| 607 | CN(C)c1cccc(C(=O)N2CC[C@H]3C2[C@H](c2cccc(Cl)c2F)[C@]2(C(=O)Nc4cc(Cl)ccc42)N3CC2CC2)c1 (some centres unmarked) [Compound I-87] |
| 722 | CCOc1cccc(CN2[C@@H]3CCN(CC(=O)O)[C@@H]3[C@@H](c3cccc(Cl)c3F)[C@@]23C(=O)Nc2cc(Cl)ccc23)c1 [Compound I-71] |
| 29 | CCOc1cccc(CN2[C@H]3CCN(Cc4cn[nH]c4C(=O)O)[C@H]3[C@H](c3cccc(Cl)c3F)[C@]23C(=O)Nc2cc(Cl)ccc23)c1 [Compound I-73] |
| 91 | O=C(O)c1ccc(CN2CC[C@H]3[C@@H]2[C@H](c2cccc(Cl)c2F)[C@]2(C(=O)Nc4cc(Cl)ccc42)N3CC2CC2)cc1 [Compound I-68] |
| 24 | CCOc1cccc(CN2[C@H]3CCN(CC4CCC(C(=O)O)CC4)[C@H]3[C@H](c3cccc(Cl)c3F)[C@]23C(=O)Nc2cc(Cl)ccc23)c1 (some centres unmarked) [Compound I-62] |
| 180 | CCOc1cccc(CN2[C@H]3CCN(C(C)=O)C3[C@H](c3cccc(Cl)c3F)[C@]23C(=O)Nc2cc(Cl)ccc23)n1 (some centres unmarked) [Compound I-91] |
| 28 | CCOc1cccc(CN2[C@H]3CCN(C(C)=O)C3[C@H](c3cccc(Cl)c3F)[C@]23C(=O)Nc2cc(Cl)ccc23)c1 (some centres unmarked) [Compound I-88] |
| 386 | O=C(Cc1cccnc1)N1CC[C@H]2C1[C@H](c1cccc(Cl)c1F)[C@]1(C(=O)Nc3cc(Cl)ccc31)N2CC1CC1 (some centres unmarked) [Compound I-79] |
| 40 | O=C(O)CN1CC[C@H]2[C@@H]1[C@H](c1cccc(Cl)c1F)[C@]1(C(=O)Nc3cc(Cl)ccc31)N2CC1CC1 [Compound I-67] |
| 377 | O=C(O)c1cccc(C(=O)N2CC[C@H]3C2[C@H](c2cccc(Cl)c2F)[C@]2(C(=O)Nc4cc(Cl)ccc42)N3CC2CC2)c1 (some centres unmarked) [Compound I-93] |
| 209 | CCOc1cccc(CN2[C@@H]3CCN(CC4CC4C(=O)O)[C@@H]3[C@@H](c3cccc(Cl)c3F)[C@@]23C(=O)Nc2cc(Cl)ccc23)c1 (some centres unmarked) [Compound I-66] |
| 102 | O=C(CCO)N1CC[C@H]2C1[C@H](c1cccc(Cl)c1F)[C@]1(C(=O)Nc3cc(Cl)ccc31)N2CC1CC1 (some centres unmarked) [Compound I-83] |
| 16 | NC(=O)c1ccc([C@H]2C[C@H]3[C@@H](N2)[C@H](c2cccc(Cl)c2F)[C@]2(C(=O)Nc4cc(Cl)ccc42)N3CC2CC2)cc1 [Compound I-75] |
| 389 | CC(=O)Nc1ccc(C(=O)N2CC[C@H]3C2[C@H](c2cccc(Cl)c2F)[C@]2(C(=O)Nc4cc(Cl)ccc42)N3CC2CC2)cc1 (some centres unmarked) [Compound I-82] |
| 596 | O=C(c1ncccn1)N1CC[C@H]2C1[C@H](c1cccc(Cl)c1F)[C@]1(C(=O)Nc3cc(Cl)ccc31)N2CC1CC1 (some centres unmarked) [Compound I-80] |
| 2 | CCOc1cccc(CN2[C@H]3CCN(CC(=O)O)[C@H]3[C@H](c3cccc(Cl)c3F)[C@]23C(=O)Nc2cc(Cl)ccc23)c1 [Compound I-70] |
| 130 | O=C(O)C1CC1CN1CC[C@H]2[C@@H]1[C@H](c1cccc(Cl)c1F)[C@]1(C(=O)Nc3cc(Cl)ccc31)N2CC1CC1 (some centres unmarked) [Compound I-63] |
| 34 | CC(=O)N1CC[C@H]2C1[C@H](c1ccnc(Cl)c1F)[C@]1(C(=O)Nc3cc(Cl)ccc31)N2CC1CC1 (some centres unmarked) [Compound I-89] |
| 107 | CN(C)C(=O)CCC(=O)N1CC[C@H]2C1[C@H](c1cccc(Cl)c1F)[C@]1(C(=O)Nc3cc(Cl)ccc31)N2CC1CC1 (some centres unmarked) [Compound I-84] |
| 119 | COCC(=O)N1CC[C@H]2C1[C@H](c1cccc(Cl)c1F)[C@]1(C(=O)Nc3cc(Cl)ccc31)N2CC1CC1 (some centres unmarked) [Compound I-77] |
| 6 | CCOc1cccc(CN2[C@H]3CCN(C(C)=O)C3[C@H](c3ccnc(Cl)c3F)[C@]23C(=O)Nc2cc(Cl)ccc23)c1 (some centres unmarked) [Compound I-90] |
| 212 | CC(=O)N1CC[C@H]2C1[C@H](c1cccc(Cl)c1F)[C@]1(C(=O)Nc3cc(Cl)ccc31)N2CC1CC1 (some centres unmarked) [Compound I-76] |
| 6 | CCOc1cccc(CN2[C@H]3CCN(CC4CC4C(=O)O)[C@H]3[C@H](c3cccc(Cl)c3F)[C@]23C(=O)Nc2cc(Cl)ccc23)c1 (some centres unmarked) [Compound I-64] |
| 3 | CCOc1cccc(CN2[C@H]3CCN(CC(=O)O)[C@H]3[C@H](c3cccc(Cl)c3F)[C@]23C(=O)Nc2cc(Cl)ccc23)c1 [Compound I-69] |
